Reference: PubChem BioAssay AID434934 (The Scripps Research Institute Molecular Screening Center, 2010)
Values joined by “and” are separate entries in the source; they are usually repeats but may differ in a detail not shown here. Equal values may be shown once. Active and inactive are the calls of the source.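 How the source made its calls: active means IC50 at or below 10 µM; inactive means IC50 above 10 µM.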

The compounds below were run on NIH 3T3 viability, CellTiter-Glo ATP luminescence (assay: 3T3 cell viability loss – luminescence, dose response, cytotoxicity control for TPT1 inhibitor project, late-stage follow-up (AID 434934)).

SMILES | IC50
Cc1ccc(N2C(=O)NC(=O)/C(=C\c3ccc([N+](=O)[O-])o3)C2=O)cc1 | 23.2 µM (inactive)
NS(=O)(=O)c1cc(C(=O)NC2CCSc3ccccc32)ccc1Cl (stereo not given) | > 79.4 µM (inactive)
Cc1ccccc1N1C(=O)/C(=C/c2ccco2)C(=O)NC1=S | 46.1 µM (inactive) and 34.3 µM (inactive)
OC(Cn1cncn1)(Cn1cncn1)c1ccc(F)cc1F | > 26.5 µM (inactive)
NC(=O)c1cc[n+](CC2=C(C(=O)O)N3C(=O)[C@@H](NC(=O)C(c4ccccc4)S(=O)(=O)O)[C@H]3SC2)cc1 (stereo not given in full) | > 79.4 µM (inactive)
COc1ccc(OC)c(N2C(=O)/C(=C/c3ccco3)C(=O)NC2=S)c1 | 73.9 µM (inactive)
CC1=C(C#N)C(=O)N(C2CCS(=O)(=O)C2)C(=O)/C1=C\c1ccco1 (stereo not given) | 20.4 µM (inactive)
Cc1cc(C)n(Cc2ccc(C(=O)NN=Cc3ccc(-c4ccc([N+](=O)[O-])cc4)o3)o2)n1 | > 79.4 µM (inactive)
Cc1[nH]n(-c2ccc(S(=O)(=O)O)cc2)c(=O)c1N[N-]c1ccc(C2=CC(=O)/C(=N\[N-]c3ccc4c(S(=O)(=O)O)cc(S(=O)(=O)O)c(N)c4c3O)C=C2)cc1O.[Cu+].[Cu+] | 1.82 µM
O=c1oc2c(O)c(O)cc3c(=O)oc4c(O)c(O)cc1c4c23 | > 26.5 µM (inactive)
